The results in this text go back to PMC6817881, “Antimalarial Quinoline Drugs Inhibit β-Hematin and Increase Free Hemin Catalyzing Peroxidative Reactions and Inhibition of Cysteine Proteases” (Scientific Reports, 2019).

One experiment concerns the target T1, papain (Carica papaya, UniProt P00784).
T1 construct: native commercial enzyme (Sigma)
T1 sequence (P00784 134-345): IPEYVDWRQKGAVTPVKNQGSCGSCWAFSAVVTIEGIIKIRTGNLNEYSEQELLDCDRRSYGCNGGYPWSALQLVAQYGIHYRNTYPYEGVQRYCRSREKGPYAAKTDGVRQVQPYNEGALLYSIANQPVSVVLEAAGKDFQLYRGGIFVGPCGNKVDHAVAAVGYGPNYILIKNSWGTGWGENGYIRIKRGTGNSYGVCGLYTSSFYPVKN
In words: RP-HPLC of released AMC. It counts as biochemical. The following applies: pH 4.8 acetate, 37 °C, 100 µM substrate, cysteine; medium also held H2O2, hemin/chloroquine.

The next experiment addresses T2, cathepsin B (Bos taurus, UniProt P07688).
T2 construct: gene CTSB; native commercial enzyme from bovine spleen (Sigma)
In words: RP-HPLC of released AMC. It counts as biochemical. The following applies: 100 µM substrate, 37 °C, cysteine, globin, H2O2; hemin/chloroquine incubation medium.

Residues, ends and D or L forms follow the SMILES beside them. *: point of attachment. AMC = Cc1cc(=O)oc2cc(N*)ccc12; Cbz = O=C(OCc1ccccc1)*

For `Cc1cc(=O)oc2cc(NC(=O)[C@H](CCCNC(=N)N)NC(=O)[C@H](Cc3ccccc3)NC(=O)OCc3ccccc3)ccc12` [Z-Phe-Arg-AMC] (Cbz-Phe-Arg-{AMC}), the “RP-HPLC of released AMC” value at papain is “papain, ficin and cathepsin-B using Z-Phe-Arg-AMC peptide”; on cathepsin B, “papain, ficin and cathepsin-B using Z-Phe-Arg-AMC peptide”.
